Results on 15 compounds are retold here after patent publication EP4755878A1, “PHOTOCHROMIC COMPOUND, PHENOL DERIVATIVE, CURABLE COMPOSITION, OPTICAL ARTICLE, LENS, AND EYEGLASS” (TOKUYAMA CORPORATION, priority 2023, dated 2025).

The nature of the series: Photochromic properties of photochromic laminate (plastic lens) made by coating method. It counts as physicochemical. The following applies: for Color developing density at 23°C: absorbance difference after 240 seconds irradiation at 23°C; for Color developing density at 35°C: absorbance difference after 240 seconds irradiation at 35°C; for Maximum absorption wavelength: after color development, second absorption wavelength (lower line of pair). The text has this: First, the photochromic compound obtained in Example 1 above, a photoinitiator, and polymerizable compounds were mixed to obtain a curable composition.
As the polymerizable compounds, a blend of the following radically-polymerizable monomers in combination was used.
• Polyethylene glycol dimethacrylate (average molecular weight: 736): 42 parts by mass • Polyethylene glycol dimethacrylate (average molecular weight: 536): 12 parts by mass • Trimethylolpropane trimethacrylate: 38 parts by mass • γ-Methacryloyloxypropyltrimethoxysilane: 2 parts by mass • Glycidyl methacrylate: 1 part by mass.
Note that in the curable composition, the photochromic compound obtained in Example 1 above was added to be 0.25 mmol taking the total amount of the radically-polymerizable monomers as 100 g. The following were used as additives.
(stabilizer, Irganox 245): 1 part by mass Bis(1,2,2,6,6-pentamethyl-4-piperidyl) sebacate: 3 parts by mass Leveling agent from DuPont Toray Specialty Materials K.K. (L7001): 0.1 parts by mass.
Note that the above-mentioned additives are described with blending ratios taking a total of the radically-polymerizable monomers as 100 parts by mass.
Using this curable composition, a photochromic laminate was obtained by a lamination process described below with the polymerization described below being carried out.
First, a thiourethane plastic lens with a center thickness of 2 mm and a refractive index of 1.60 was prepared as an optical substrate. Note that the thiourethane plastic lens had been alkaline-etched beforehand in a 10% aqueous sodium hydroxide solution at 50°C for 5 minutes, and then thoroughly washed with distilled water.
A spin coater (1H-DX2, manufactured by MIKASA CO., LTD) was used to coat a surface of the above-mentioned plastic lens with a moisture-curable primer (product name: TR-SC-P, manufactured by Tokuyama Corporation) at a rotation speed of 70 rpm for 15 seconds, followed by at 1000 rpm for 10 seconds. Then, about 2 g of the photochromic curable composition obtained as above was spin-coated at a rotation speed of 60 rpm for 40 seconds, followed by at 600 rpm for 10 to 20 seconds so as to achieve a photochromic coating layer with a film thickness of 40 µm.
The lens having the surface coated with the photochromic curable composition (photochromic coating layer) was irradiated with light for 90 seconds in a nitrogen gas atmosphere using a metal halide lamp with an output of 200 mW/cm^2 to cure the coating film. The coating was then further heated at 110°C for 1 hour to produce a photochromic laminate with a photochromic layer.
Photochromic laminates were produced using the photochromic compounds obtained in Examples 2 to 19 in the same manner as in Example 20.
Photochromic laminates were obtained in the same manner as in Example 20 using photochromic compounds represented by the following formulas (A) to (F). [drawing 143] [drawing 144] [drawing 145] [drawing 146] [drawing 147] [drawing 148] [drawing 149] [drawing 150]
The resulting photochromic laminates were evaluated by the methods described below.
Table 3 summarizes the results of Examples 20, 32, and 34, and Comparative Examples 1 to 6, and Table 4 summarizes the results of Examples 21 to 31, 33, and 35 to 38. The relationship between the fading half-life at 23°C and the color development ratio at the higher temperature of the photochromic laminates according to Examples and Comparative Examples are shown in a graph in FIG. 1.
Photochromic laminates were formed using the photochromic compound obtained in Examples 61 to 71 in the same manner as in Example 20.

For `CCCOc1ccc(C2(c3ccc(OCCC)cc3)C=Cc3c4c(c5ccc(-c6ccc(OC)cc6OC)cc5c3O2)-c2ccc(N(C)c3ccc(F)cc3)cc2C4(CC)CC)cc1` [Formula (5-4)], the Maximum absorption wavelength stood at 596 nm. Further, for the setting “first absorption wavelength”, the “Color developing density at 23°C” value is on record as 0.72 - and the “Color developing density at 35°C” value is reported as 0.53 -. Besides, for the setting “second absorption wavelength”, the “Color developing density at 23°C” value is 1.18 - and the “Color developing density at 35°C” value is 0.88 -.
The matching figures for `CCCCCCOc1ccc(C2(c3ccc(OCCCCCC)cc3)C=Cc3c4c(c5ccc(OC(F)(F)F)cc5c3O2)-c2ccc(N(C)c3ccc(C(F)(F)F)cc3)cc2C42CCC(CC)(CC)CC2)cc1` [Formula (6-3)]: 598 nm, 0.37 -, 0.22 -, 0.77 - and 0.46 -.
The matching figures for `COCCN(c1ccccc1)c1ccc2c(c1)C(CCOC)(CCOC)c1c3c(c4cc(C)c(N5CCOCC5)cc4c1-2)OC(c1ccc(OC)cc1)(c1ccc(OC)cc1)C=C3` [Formula (10-3)]: 594 nm, 1.24 -, 0.83 -, 1.01 - and 0.68 -.
The corresponding values for `COc1ccc(C2(c3ccc(N4CCOCC4)cc3)C=Cc3c4c(c5cc(Sc6c(C)cccc6C)c(OC)cc5c3O2)-c2ccc(N3CCOc5cc(F)ccc53)cc2C42CC(C)(C)CC(C)(C)C2)cc1` (stereo not drawn) [Formula (11-4)] are 620 nm, 0.51 -, 0.31 -, 0.51 - and 0.30 -.
As to `COc1ccc2c3c(c4c(c2c1)OC(c1ccc(F)cc1)(c1ccc(N2CCOCC2)cc1)C=C4)C(CCC(F)(F)F)(CCC(F)(F)F)c1cc(N(C)c2ccc(C)cc2)ccc1-3` (stereo not drawn) [Formula (14-3)], the Maximum absorption wavelength worked out at 628 nm. For the same compound, for the setting “first absorption wavelength”, the “Color developing density at 23°C” value is 0.73 - and the “Color developing density at 35°C” value was 0.51 -. Where the note is “second absorption wavelength”, the “Color developing density at 23°C” value was 1.13 - and the “Color developing density at 35°C” value is recorded as 0.80 -.
The matching figures for `CCCC1(CCC)c2cc(N3CCCc4ccccc43)ccc2-c2c1c1c(c3cc(OC)ccc23)OC(c2ccc(OC)cc2)(c2ccc(OCCCO)cc2)C=C1` (stereo not drawn) [Formula (17-3)]: 613 nm, 0.85 -, 0.61 -, 0.96 - and 0.70 -.
In the case of `CCC1(CC)c2cc(N3CCOc4ccccc43)ccc2-c2c1c1c(c3cc(OC)ccc23)OC(c2ccc(OCCOC(=O)CCCCCCCCC(=O)OCCOc3ccc(C4(c5ccc(N6CCOCC6)cc5)C=Cc5c6c(c7ccc(OC)cc7c5O4)-c4ccc(N5CCOc7ccccc75)cc4C6(CC)CC)cc3)cc2)(c2ccc(N3CCOCC3)cc2)C=C1` (stereo not drawn) [Formula (19-3)], the Maximum absorption wavelength was 629 nm. Besides, where the note is “first absorption wavelength”, the “Color developing density at 23°C” value is reported as 0.55 - and the “Color developing density at 35°C” value was 0.34 -. Besides, under “second absorption wavelength”, the “Color developing density at 23°C” value is listed as 0.88 - and the “Color developing density at 35°C” value is 0.57 -.
The matching figures for `CCCOc1ccc(C2(c3ccc(OCCC)cc3)C=Cc3c4c(c5cc(N(C)c6ccccc6)c(OC)cc5c3O2)-c2ccc(N(C)c3ccccc3)cc2C4(CCC)CCC)cc1` [Formula (61-4)]: 619 nm, 1.37 -, 1.03 -, 0.88 - and 0.64 -.
The corresponding values for `COCCOCCOCCC1(CCOCCOCCOC)c2cc(N(c3ccccc3)c3ccccc3)ccc2-c2c1c1c(c3cc(OC)c(-c4c(OC)cc(OC)cc4OC)cc23)OC(c2ccc(OC)cc2)(c2ccc(OC)cc2)C=C1` [Formula (62-5)] are 625 nm, 1.20 -, 0.88 -, 0.90 - and 0.66 -.
For the compound `CCCCOc1ccc(C2(c3ccc(OC)cc3)C=Cc3c4c(c5cc(-c6ccc(C(F)(F)F)cc6)c(OC)cc5c3O2)-c2ccc(N(C)c3ccccc3)cc2C4(CCC)CCC)cc1` (stereo not drawn) [Formula (63-2)], the Maximum absorption wavelength came to 626 nm. Further, under “first absorption wavelength”, the “Color developing density at 23°C” value is on record as 0.71 - and the “Color developing density at 35°C” value is recorded as 0.50 -. Under “second absorption wavelength”, the “Color developing density at 23°C” value was 0.80 - and the “Color developing density at 35°C” value is recorded as 0.57 -.
The corresponding values for `CCCCCCOc1ccc(C2(c3ccc(OCCCCCC)cc3)C=Cc3c4c(c5cc(N6CCC(C(F)(F)F)CC6)c(OC)cc5c3O2)-c2ccc(N(c3ccccc3)c3ccccc3)cc2C42CCC3(CCCCC3)CC2)cc1` [Formula (64-3)] are 611 nm, 1.94 -, 1.38 -, 0.92 - and 0.67 -.
The corresponding values for `CCCCOCCC1(CCOCCCC)c2cc(N(c3ccccc3)c3ccccc3)ccc2-c2c1c1c(c3cc(OC)c(N(C)c4ccc(C(F)(F)F)cc4)cc23)OC(c2ccc(OC)cc2)(c2ccc(OCCC)cc2)C=C1` (stereo not drawn) [Formula (65-2)] are 623 nm, 0.85 -, 0.57 -, 0.77 - and 0.53 -.
Regarding `CCCCCC1(CCCCC)c2cc(N3CCOc4ccccc43)ccc2-c2c1c1c(c3cc(OC)c(-c4ccc(N5CCOc6ccccc65)cc4)cc23)OC(c2ccc(OC)cc2)(c2ccc(OC)cc2)C=C1` [Formula (66-5)], the Maximum absorption wavelength is 602 nm. In addition, for the setting “first absorption wavelength”, the “Color developing density at 23°C” value is reported as 1.37 - and the “Color developing density at 35°C” value is on record as 1.09 -. For the same compound, where the note is “second absorption wavelength”, the “Color developing density at 23°C” value is reported as 1.03 - and the “Color developing density at 35°C” value is listed as 0.82 -.
The corresponding values for `CCC1(CC)c2cc(N(C)c3ccccc3)ccc2-c2c1c1c(c3cc(OC)c(-c4ccc(OC)cc4OC)cc23)OC(c2ccc(OC)cc2)(c2ccc(N3CCOCC3)cc2)C=C1` (stereo not drawn) [Formula (67-2)] are 639 nm, 0.84 -, 0.60 -, 1.00 - and 0.72 -.
The matching figures for `CCCCOCCC1(CCOCCCC)c2cc(N(c3ccccc3)c3ccc(C)cc3)ccc2-c2c1c1c(c3cc(OC)c(OC)cc23)OC(c2ccc(OC)cc2)(c2ccc(N3CCOCC3)cc2)C=C1` (stereo not drawn) [Formula (68-2)]: 636 nm, 0.79 -, 0.51 -, 0.73 - and 0.47 -.
